Assay results as given in US20080139534A1, “Bisbenzamidines and bisbenzamidoximes for the treatment of human African trypanosomiasis” (XAVIER UNIVERSITY OF LOUISIANA, priority 2006, published 2008).
Like-named read-outs stand apart in the source and are kept apart here. Marks after values point to notes of the source that are not given here.

Columns and labels:
calf thymus DNA = experiment: Thermal denaturation study, DNA binding affinity (ΔTm); conditions: 1:5 compound to base pair ratio;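 also: shift in midpoint melting temperature of calf thymus DNA thermal denaturation curves caused by compound binding, values averaged over at least two determinations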
Protocol: (§1) The binding affinity was measured by determining the change in the midpoint (Tm) of the thermal denaturation curves of calf thymus DNA as well as poly(dA-dT) at a 1:5 compound to base pair ratio.

[1] = tested on: T. b. rhodesiense KETRI 243; experiment: In vitro trypanocidal activity, bloodforms in HMI-18 medium, Coulter counts; format: cell-based, Trypanosoma brucei rhodesiense; conditions: 48 h exposure
[2] = tested on: T. b. brucei Lab 110 EATRO; experiment: as above; format: cell-based, Trypanosoma brucei brucei; conditions: 48 h exposure, bloodforms, read-out: Lab 100 EATRO IC50
Protocol: The compounds were tested against trypanosome isolates grown as blood forms in HMI-18 medium containing 20% horse serum in 24 well microplates at 37° C. in 5% CO2. Wells were inoculated with 1×10^5 trypanosomes. […] One-half the volume was replaced daily. Cell counts were made daily with a Coulter Counter, Model Z1 (Beckman Coulter, Miami, Fla., USA). Cells were diluted with Isoton I buffer (Beckman Coulter) and the aperture was standardized at 5.14 μm. Background checks were performed daily on 1:10 dilutions of medium. Counts, normalization, and coincident counts were accounted for by the standardized Coulter analysis program. Occasionally, hemocytometer counts were performed as a check on the validity of the Coulter program. IC50 values were determined after 48 h from semi-log plots and the values are the result of duplicate determinations. Initially a broad concentration curve was used and then a close concentration curve from which IC50 values were determined. Assays were done in duplicate and each point was the average of the two. Control cells grew to 5×10^6/ml.
Coulter counts were made daily and IC50 values determined after 48 hours exposure.

poly(dA-dT) = experiment: Thermal denaturation study, DNA binding affinity (ΔTm); conditions: 1:5 compound to base pair ratio;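 also: shift in the midpoint temperature of the thermal melting curve of poly(dA-dT), each value the mean of two or more independent determinations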
Protocol: as §1

[3] = tested on: T. b. brucei Lab 110 EATRO; experiment: In vivo efficacy in infected mice; parameters: species or system Trypanosoma brucei brucei
Protocol: Female Swiss-Webster mice (weight, 20 g) were infected (intraperitoneally) with 2.5×10^5 trypanosomes from rat blood, and the infection was allowed to develop for 24 h before drug treatment was begun. Groups of three mice each were injected (intraperitoneally) with each drug concentration. All of the experiments included a group of untreated controls. […] Parasitemia of animals dying of infection averaged 0.5-1.0×10^9/mL of blood. These infections are very predictable and daily counts were not done because of the labor involved. […] Animals were monitored weekly for parasites in tail vein blood smears. Mice were considered cured if they survived more than 30 days after the death of the last control with no parasites in tail vein blood smears. MSD (mean survival in days) was also recorded for each group. It is the average time of survival of the animals in the group, exclusive of cured animals.
Mice were infected with 250,000 parasites and dosing commenced 24 h. post infection. Mice were separated into groups of three and given single i.p doses for 3 days unless otherwise noted. Infected untreated controls were used for each experiment. Mice were considered cured if surviving more than 30 days beyond death of controls without parasites in tail vein blood smears. MSD, mean survival in days, exclusive of cured animals.

[4] = mice, 1 mg/kg/day i.p. for 3 days
[5] = mice, 5 mg/kg/day i.p. for 3 days
[6] = Trypanosoma brucei, RHODESIENSE

Structure (SMILES) | DNA Binding Δ Tm Calf thymus (calf thymus DNA) | IC50 [1] | IC50 [2] | DNA Binding Δ Tm Poly (dA-dT) (poly(dA-dT)) | other results
C(=NNc1ccccc1)c1ccc(N2CCN(c3ccc(C=NNc4ccccc4)cc3)CC2)cc1 [compound 0116] | −0.2 °C | 1870 nM | 1740 nM | 0.0 °C | –
Cl.Cl.c1cc(N2CCN(c3ccc(C4=NCCCN4)cc3)CC2)ccc1C1=NCCCN1 [632N] | 12.2 °C | – | – | 17.9 °C | –
Cl.Cl.c1cc(N2CCN(c3ccc(C4=NCCN4)cc3)CC2)ccc1C1=NCCN1 [compound 0126] | 15.0 °C | 6.5 nM | 16 nM | 19.4 °C | –
N=C(N)c1ccc(NC(=O)CCCCCCCCCCC(=O)Nc2ccc(C(=N)N)cc2)cc1 [compound 0711] | – | 6.6 nM | 8.4 nM | – | # Cured/#Treated (%) ([3]; mice, 1, 2.5, 5, 10, 15, 25 mg/kg/day i.p. for 3 days (all doses failed to cure)): 0/3^a; MSD ([3]; mice, 1, 2.5, 5, 10, 15, 25 mg/kg/day i.p. for 3 days (all doses)): 5 to 10.3 days
N#Cc1ccc(NC(=O)CC(=O)Nc2ccc(C#N)cc2)cc1 [compound 0712] | – | 1600 nM | 5000 nM | – | –
N=C(N)c1ccc(OCc2cccc(COc3ccc(C(=N)N)cc3)c2)cc1 [compound 0512] | 14.0 °C | 1.5 nM | 0.74 nM | – | # Cured/#Treated (%) [3, 4]: 0/3; MSD [3, 4]: 8 days; # Cured/#Treated (%) [3, 5]: 0/3; MSD [3, 5]: 18 days; MSD ([3]; mice, 10 mg/kg/day i.p. for 3 days): >30 days; MSD ([3]; mice, 15 mg/kg/day i.p. for 3 days): >30 days
Cl.Cl.N=C(N)c1ccc(N2CCCN(c3ccc(C(=N)N)cc3)CC2)cc1 [7AM] | 15.0 °C | 2.7 nM | 2.15 nM | 23.1 °C | –
Cl.Cl.N=C(NC1CCCCCCC1)c1ccc(N2CCN(c3ccc(C(=N)NC4CCCCCCC4)cc3)CC2)cc1 [compound 0134] | 12.6 °C | – | 2.3 nM | 15.7 °C | –
CCCNC(=N)c1ccc(N2CCN(c3ccc(C(=N)NCCC)cc3)CC2)cc1.Cl.Cl [63N, N,N′-Dipropyl 4,4′-(1,4-piperazinediyl)bisbenzenecarboxidamide] | 17.0 °C | – | – | 26.0 °C | IC50 [1, 6]: 32.5 nM; IC50 ([2]; Trypanosoma brucei): 35 nM
N=C(N)c1ccc(OC(=O)c2ccc(C(=O)Oc3ccc(C(=N)N)cc3)cc2)cc1 [compound 0432] | 9.9 °C | 3100 nM | 4300 nM | – | –
c1ccc2[nH]c(-c3ccc(N4CCN(c5ccc(-c6nc7ccccc7[nH]6)cc5)CC4)cc3)nc2c1 [compound 0115, 1,4-bis[4-(1H-benzymidazol-2-yl)phenyl]piperazine] | 0.1 °C | – | – | 2.0 °C | IC50 [1, 6]: 5800 nM; IC50 ([2]; Trypanosoma brucei): 1150 nM
Cl.Cl.c1cc(N2CCCN(c3ccc(C4=NCCCN4)cc3)CC2)ccc1C1=NCCCN1 [732N] | 15.5 °C | – | – | 21.3 °C | –
c1ccc(N2CCN(c3ccccc3)C2c2ccc(N3CCN(c4ccc(C5N(c6ccccc6)CCN5c5ccccc5)cc4)CC3)cc2)cc1 [compound 0109] | −1.2 °C | 335 nM | 120 nM | 0.0 °C | –
CCOC(=O)c1ccc(N2CCN(c3ccc(C(=O)OCC)cc3)CC2)cc1 [compound 0118] | 0.6 °C | 350 nM | 340 nM | 0.0 °C | –
CC(=O)c1ccc(N2CCN(c3ccc(C(C)=O)cc3)CC2)cc1 [compound 0123] | 0.1 °C | 1550 nM | 2350 nM | 0.0 °C | –
N=C(N)c1ccc(NC(=O)CCCCCCCC(=O)Nc2ccc(C(=N)N)cc2)cc1 [compound 0708] | – | 240 nM | 400 nM | – | –
N/C(=N\O)c1ccc(NC(=O)CCCC(=O)Nc2ccc(/C(N)=N/O)cc2)cc1 [compound 0704, N,N′-bis[4-(N-Hydroxyamidino)phenyl]pentanediamide] | – | – | – | – | IC50 [1, 6]: 10000 nM; IC50 ([2]; Trypanosoma brucei): 7300 nM
CCCCCCCNC(=N)c1ccc(N2CCN(c3ccc(C(=N)NCCCCCCC)cc3)CC2)cc1.Cl.Cl [compound 0133] | 8.7 °C | 57 nM | 100 nM | 8.5 °C | –
N=C(NO)c1ccc(N2CCN(c3ccc(C(=N)NO)cc3)CC2)cc1 [compound 0125, N,N′-Dihydroxy 4,4′-(1,4-piperazinediyl)bisbenzenecarboxidamide] | 0.8 °C | – | – | – | IC50 [1, 6]: 1920 nM; IC50 ([2]; Trypanosoma brucei): 1020 nM; # Cured/#Treated (%) ([3]; mice, 50 mg/kg/day (po)): 0/3; MSD ([3]; mice, 50 mg/kg/day (po)): 5 days; # Cured/#Treated (%) ([3]; mice, 100 mg/kg/day (po)): 0/3; MSD ([3]; mice, 100 mg/kg/day (po)): 5 days; MSD ([3]; mice, 100 mg/kg/day (split dose, po; 9am and 4 pm)): >30 days
N=C(N)c1cccc(NC(=O)CCCCC(=O)Nc2cccc(C(=N)N)c2)c1 [compound 0715] | – | 21 nM | 41 nM | – | –
